In patent publication US8293256B2, “Sulfamide derivatives and cosmetic use thereof” (L'Oreal, priority 2004, dated 2012):

Experiments:
stratum corneum [1] = test: Dermometer: mechanical measurement of the plasticizing effect (modulus of elasticity); conditions: 30° C., 75% relative humidity, 3% aqueous solution (compounds 9 and 15 in isopropyl N-lauroyl sarcosinate), mean ± standard deviation, 6 to 10 samples
Description: (§1) Two tests were performed to evaluate the moisturizing potential of the compounds of the invention formulated in an aqueous 3% solution (except for compounds 9 and 15, which were evaluated in a solution of isopropyl N-lauroyl sarcosinate).
Dermometer, mechanical measurement of the plasticizing effect (described by J. de Rigal, J-L. Leveque, International Journal of Cosmetic Science, 1982, 247-260),
The tests carried out were performed under standard conditions on stratum corneum in a room with regulated temperature and humidity (T=30° C. and RH=75%). The modulus of elasticity measurements are performed on each control specimen and then 2 hours and 20 hours after application of the treatment. The relative variation in the modulus allows assessment of the plasticizing effect of the active agent on the stratum corneum.
The mean and the standard deviation were calculated on 6 to 10 samples.

stratum corneum [2] = test: Transepidermal Water Loss (TWL) across isolated defatted stratum corneum (Evaporimeter EP1); conditions: 40% relative humidity, 30° C., 3% aqueous solution (compounds 9 and 15 in isopropyl N-lauroyl sarcosinate), mean ± standard deviation, 8 samples
Description: as §1
Transepidermal Water Loss (TWL), evaluation of the changes in barrier function of the stratum corneum.
Transepidermal water loss is a physiological phenomenon of diffusion of water vapour across the horny layer. It results from the presence of a high pressure gradient of water vapour between the internal and external media of the body. The TWL depends on the integrity of the barrier function of the stratum corneum. The machine evaluating the TWL (Evaporimeter EP1, Servomed) measures the flow of water that diffuses passively across the stratum corneum (g/m^2/h).
The isolated stratum is placed (inner face) on a water tank and equilibrated in a room regulated at 40% relative humidity (T=30° C.). Before the measurement, the stratum corneum is defatted via a two-hour treatment in a mixture of chloroform and methanol (2 v/lv). For each measurement, the TWL is measured on the stratum corneum before treatment and then 2 and 20 hours after application of the treatment. […] The measurements are analysed in pairs. […]
The mean and the standard deviation were calculated on 8 samples distributed over 2 batches of stratum corneum.

melting point [°C]	Structure (SMILES)	Relative variation in the modulus of elasticity of stratum corneum (stratum corneum [1]; 2 h after application) [%]	Relative variation in the modulus of elasticity of stratum corneum (stratum corneum [1]; 20 h after application) [%]	Relative variation of the TWL measurements (stratum corneum [2]; 2 h after application) [%]	Relative variation of the TWL measurements (stratum corneum [2]; 20 h after application) [%]
76 to 77.5	C[Si](C)(C)C(NS(N)(=O)=O)[Si](C)(C)C	–	–	–	–
–	NC(N)=O [3% urea in water, urea]	−72 ± 9	−83 ± 7	64.3 ± 26.9	48.3 ± 24.5
78 to 82	NS(=O)(=O)NCCOS(N)(=O)=O [Compound 17, 2-[(aminosulfonyl)amino]ethyl sulfamate]	–	–	–	–
